Measurements reported in PubChem BioAssay AID1963841 (Molecular Pharmacology Branch, DTP, NCI, 2024).

Test system: 439559-082-T-J2-PDC spheroid viability
Assay: Anticancer human tumor 439559-082-T-J2-PDC patient-derived colon adenocarcinoma cell line growth inhibition [POLQ]
Conditions: spheroids with HUVEC and MSC; for viability, T/C: stronger effect = lower value
Description: Multicellular complex tumor spheroid response to Polymerase (POL) inhibitors (novobiocin, ART-558, RP6685) in combination with a variety of drugs and investigational agents in selected tumor cell lines
The POL inhibitors (novobiocin, ART-558, and RP6685) were evaluated both individually and in combination with standard of care and investigational anticancer small molecules within a complex spheroid model of solid tumors. . Complex spheroids include a stromal component modeled by human endothelial cells (HUVEC) and fibroblasts modeled by human mesenchymal stem cells (MSCs). The concentration ranges selected for each drug and investigational agent were based upon clinically achievable concentrations if the clinical Cmax of the agent was known.
Compounds. The drugs and investigational agents: novobiocin (NSC847541), ART-558 (NSC835418), RP-6685 (NSC848927), peposertib (NSC802822), ceralasertib (NSC780249), elimusertib (NSC800525), camonsertib (NSC841442), AZD-1390 (NSC803789), olaparib (NSC753686), talazoparib (NSC767125), rucaparib (NSC756644), sotorasib (NSC818433), MRTX-1133 (NSC836407), SN-38 (NSC673596), topotecan (NSC609699), epotoside (NSC141540), doxorubicin (NSC123127), gemcitabine (NSC613327), 5-fluorouracil (NSC19893), paclitaxel (NSC125973), vemurafenib (NSC761431), MSA-2 (NSC828583), SN-011 (NSC837082), adavosertib (NSC754352), prexasertib (NSC758257), carboplatin (NSC241240) and oxaliplatin (NSC266046), were obtained from the National Cancer Institute (NCI) Developmental Therapeutics Program Chemical Repository (21). The FDA-approved anticancer drug set is available from the Developmental Therapeutics Program at https://dtp.cancer.gov/organization/dscb/obtaining/. […] The stock solutions were prepared in dimethyl sulfoxide (DMSO, Sigma-Aldrich, St. Louis, MO, cat. D2650), except for the platinum compounds which were prepared in saline (Quality Biological, Gaithersburg, MD, cat. 114-055-101), at 800-fold the tested concentration and stored at -70 degrees C prior to their use. All drugs and investigational agents were tested over a range starting from a high concentration at or near the clinical Cmax and decreasing in half-log increments. If the clinical Cmax for an agent had not been determined, the highest concentration tested was 10 microM, except for SN-38, which was tested at a high concentration of 1 microM.
Cell Culture. All cells were maintained in an incubator at 37 degrees C and 5% CO2 with 95% humidity. The PDC lines were cultured according to standard operating procedures established by the NCI PDMR (https://pdmr.cancer.gov). Table 3 of the manuscript, lists the cell lines along with the number of the three cell types plated to form the mct-spheroids and media for tumor cell growth. After thawing, all PDC lines, except 997537-175-T-J1-PDC and 415267-285-R-J2-PDC, were cultured in Matrigel-coated flasks prepared with a working solution of 1X Ham's F-12 nutrient mix, without supplementation (Thermo Fisher Scientific, cat. 11765054), 100 U/mL penicillin-streptomycin (Thermo Fisher Scientific, cat. 15140122), and 2.5% Matrigel (Corning Inc., Corning, NY, cat. 354248) for the first three passages. The two PDC lines 997537-175-T-J1-PDC and 415267-285-R-J2-PDC were cultured on uncoated flasks. The 857933-349-R-J2-PDC line was cultured in 6C/Colon 1B media containing advanced DMEM/F-12 (Thermo Fisher Scientific, cat. 12634028), 10 mM HEPES (Thermo Fisher Scientific, cat. 15630080), 1X GlutaMAX supplement (Thermo Fisher Scientific, cat. 35050061), 0.1 mg/mL primocin (InvivoGen, San Diego, CA, cat. ant-pm-2), 10% defined fetal bovine serum, heat inactivated (HyClone Laboratories Inc., Logan, UT, cat. SH30070.03HI), 50% L-WRN conditioned media (ATCC, cat. CRL-3276), 1.25 mM N-Acetyl-L-cysteine (Sigma-Aldrich, cat. A9165), 10 mM nicotinamide (Sigma-Aldrich, cat. N0636), 1X B-27 supplement (Thermo Fisher Scientific, cat. 17504044), 1X N-2 supplement (Thermo Fisher Scientific, cat. […]

[1] = curve of first compound, second compound 0.0316 µM
[2] = curve of first compound, second compound 0.1 µM
[3] = curve of first compound, second compound 0.316 µM
[4] = curve of first compound, second compound 1 µM
[5] = curve of first compound, second compound 3.16 µM
[6] = curve of first compound, second compound 10 µM
[7] = second compound 0.0316 µM, first compound 0.0316 µM
[8] = second compound 0.0316 µM, first compound 0.1 µM
[9] = second compound 0.0316 µM, first compound 0.316 µM
[10] = second compound 0.0316 µM, first compound 1 µM
[11] = second compound 0.0316 µM, first compound 3.16 µM
[12] = second compound 0.0316 µM, first compound 10 µM
[13] = second compound 0.1 µM, first compound 0.0316 µM
[14] = second compound 0.1 µM, first compound 0.1 µM
[15] = second compound 0.1 µM, first compound 0.316 µM
[16] = second compound 0.1 µM, first compound 1 µM
[17] = second compound 0.1 µM, first compound 3.16 µM
[18] = second compound 0.1 µM, first compound 10 µM
[19] = second compound 0.316 µM, first compound 0.0316 µM
[20] = second compound 0.316 µM, first compound 0.1 µM
[21] = second compound 0.316 µM, first compound 0.316 µM
[22] = second compound 0.316 µM, first compound 1 µM
[23] = second compound 0.316 µM, first compound 3.16 µM
[24] = second compound 0.316 µM, first compound 10 µM
[25] = second compound 1 µM, first compound 0.0316 µM
[26] = second compound 1 µM, first compound 0.1 µM
[27] = second compound 1 µM, first compound 0.316 µM
[28] = second compound 1 µM, first compound 1 µM
[29] = second compound 1 µM, first compound 3.16 µM
[30] = second compound 1 µM, first compound 10 µM
[31] = second compound 3.16 µM, first compound 0.0316 µM
[32] = second compound 3.16 µM, first compound 0.1 µM
[33] = second compound 3.16 µM, first compound 0.316 µM
[34] = second compound 3.16 µM, first compound 1 µM
[35] = second compound 3.16 µM, first compound 3.16 µM
[36] = second compound 3.16 µM, first compound 10 µM
[37] = second compound 10 µM, first compound 0.0316 µM
[38] = second compound 10 µM, first compound 0.1 µM
[39] = second compound 10 µM, first compound 0.316 µM
[40] = second compound 10 µM, first compound 1 µM
[41] = second compound 10 µM, first compound 3.16 µM
[42] = second compound 10 µM, first compound 10 µM
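Further: spheroids exposed to compounds for seven days before readout.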
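Wherever viability, T/C is given: 100% = DMSO vehicle control viability.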

CCCS(=O)(=O)Nc1ccc(F)c(C(=O)c2c[nH]c3ncc(-c4ccc(Cl)cc4)cc23)c1F + Cc1cccc(N(C)C(=O)C2C(O)CCN2c2nc(C)cc(C(F)(F)F)c2C#N)c1
IC50 [1]: > 10000 nM | IC50 [2]: > 10000 nM | IC50 [3]: > 10000 nM | IC50 [4]: > 10000 nM | IC50 [5]: > 10000 nM | IC50 [6]: > 10000 nM | viability, T/C [7]: 103% | viability, T/C [8]: 106% | viability, T/C [9]: 92.1% | viability, T/C [10]: 97% | viability, T/C [11]: 94.8% | viability, T/C [12]: 80.3% | viability, T/C [13]: 100% | viability, T/C [14]: 96.1% | viability, T/C [15]: 91.5% | viability, T/C [16]: 94.4% | viability, T/C [17]: 113% | viability, T/C [18]: 75.8% | viability, T/C [19]: 93.5% | viability, T/C [20]: 94.4% | viability, T/C [21]: 106% | viability, T/C [22]: 86% | viability, T/C [23]: 99.4% | viability, T/C [24]: 79.5% | viability, T/C [25]: 96.2% | viability, T/C [26]: 103% | viability, T/C [27]: 92.8% | viability, T/C [28]: 95.3% | viability, T/C [29]: 91.5% | viability, T/C [30]: 78.3% | viability, T/C [31]: 99% | viability, T/C [32]: 90.2% | viability, T/C [33]: 94.9% | viability, T/C [34]: 102% | viability, T/C [35]: 102% | viability, T/C [36]: 74.4% | viability, T/C [37]: 101% | viability, T/C [38]: 96.3% | viability, T/C [39]: 82.8% | viability, T/C [40]: 90.2% | viability, T/C [41]: 90.2% | viability, T/C [42]: 70.5%

COC1C(OC(N)=O)C(O)C(Oc2ccc3c(O)c(NC(=O)c4ccc(O)c(CC=C(C)C)c4)c(=O)oc3c2C)OC1(C)C (stereo unspecified)
viability, T/C (compound 0.0316 µM): 102% [middle of 13 runs] | viability, T/C (compound 0.1 µM): 96.7% [middle of 13 runs] | viability, T/C (compound 0.316 µM): 101% [middle of 13 runs] | viability, T/C (compound 1 µM): 101% [middle of 13 runs] | viability, T/C (compound 3.16 µM): 100% [middle of 12 runs] | viability, T/C (compound 10 µM): 105% [middle of 13 runs] | IC50 (compound alone, run of 11/27/2023): > 10000 nM

Nc1ccn(C2OC(CO)C(O)C2(F)F)c(=O)n1 (stereo unspecified) + Nc1ccc(C#CCN(C(=O)Cc2ncc(C(F)(F)F)cc2C(F)(F)F)c2ccc(F)cc2)nn1
IC50 [1]: 393 nM | IC50 [2]: 583 nM | IC50 [3]: 464 nM | IC50 [4]: 519 nM | IC50 [5]: 615 nM | IC50 [6]: 1920 nM | viability, T/C [7]: 81.7% | viability, T/C [8]: 88.2% | viability, T/C [9]: 54.1% | viability, T/C [10]: 35.6% | viability, T/C [11]: 32.7% | viability, T/C [12]: 28.2% | viability, T/C [13]: 89.5% | viability, T/C [14]: 90.7% | viability, T/C [15]: 63% | viability, T/C [16]: 38.9% | viability, T/C [17]: 33.9% | viability, T/C [18]: 28.8% | viability, T/C [19]: 91.1% | viability, T/C [20]: 90.2% | viability, T/C [21]: 57.4% | viability, T/C [22]: 35.5% | viability, T/C [23]: 33.2% | viability, T/C [24]: 26.1% | viability, T/C [25]: 86.4% | viability, T/C [26]: 85.6% | viability, T/C [27]: 59.1% | viability, T/C [28]: 37.9% | viability, T/C [29]: 32.7% | viability, T/C [30]: 28.8% | viability, T/C [31]: 86.3% | viability, T/C [32]: 79.3% | viability, T/C [33]: 62.9% | viability, T/C [34]: 39.1% | viability, T/C [35]: 36.1% | viability, T/C [36]: 27.1% | viability, T/C [37]: 90.1% | viability, T/C [38]: 80% | viability, T/C [39]: 81.9% | viability, T/C [40]: 63.4% | viability, T/C [41]: 39.3% | viability, T/C [42]: 35.9%
